Several values for one entry are separate records, joined by “and”; a condition that tells them apart may be missing. Identical values can stand only once. Like-named read-outs stand apart in the source and are kept apart here.
What was measured:
[1] = tested on: KRT80 mRNA; experiment: qPCR for KRT80 mRNA levels in A549 and NCI-H1568 cells; type: cell-based, human; conditions: for EC50: Homo sapiens
Procedure: 350,000–500,000 cells were seeded in 6-well plates and compounds were added the next day at the indicated concentrations after pre-dilution in medium. Cells were incubated for 18 h, harvested, and RNA was extracted using the RNeasy Mini Kit (Qiagen) according to manufacturer’s instructions. A DNAse digestion step was included. 1 µg RNA was used for cDNA synthesis with the SuperScript VILO cDNA synthesis kit (Invitrogen) according to manufacturer’s instructions. TAQMAN qPCR was then performed using the QuantiTect Multiplex PCR kit (Qiagen) with probes for KRT80 (Hs01372365_m1, Applied Biosystems) and human GAPDH as endogenous control (4326317E, VIC/MGB probe, Primer Limited) for normalisation in a duplex assay over 45 cycles with 100 ng cDNA input. […] Curves were fitted using a 4-parametric logistic model.

[2] = Cell viability assay (CellTiter Glo) in a panel of cell lines; type: cell-based, human; conditions: for EC50: Homo sapiens; for viability at 1 µM: log10 conc -6 mol/l; for viability at 0.316 µM: log10 conc -6.50031 mol/l; for viability at 1.25 µM: log10 conc -5.90309 mol/l; for viability at 0.313 µM: log10 conc -6.50446 mol/l
Procedure: 500–2000 cells were seeded in white, clear bottom 96-well plates (Corning or Perkin Elmer) in 180–200 µl medium per well. The next day, compounds were added using a digital dispenser and a T0 sample was measured for reference. Cells were incubated for 144–192 h, and viability (luminescence) was measured using CellTiter Glo or CellTiter Glo 2.0 (Promega) according to manufacturer’s instructions after equilibrating cells and reagents at room temperature and 10–20 min incubation time while shaking.

[3] = human, LXFA 629L cells, LXFA_629L
[4] = human, LXFA 923L cells, LXFA_923L
[5] = human, LXFL 529L cells, LXFL_529L

In the case of Cc1ncsc1-c1ccc(C(CCC(C)CCN2CCC(c3ccc4c(c3)n(C3CCCC3)c3nc(=O)c5c(Br)cccc5n43)CC2)NC(=O)C2CC(O)CN2C(=O)C(NC(=O)C2(F)CC2)C(C)(C)C)cc1 (stereo not shown) [ACBI2], the “KRT80 mRNA levels” value ([1]; 18 h treatment) is reported as “decreased mRNA levels of KRT80”, the “Bottom (% KRT80 mRNA, four-parameter fit)” value ([1]; A549) is reported as 1.487% and the “HillSlope (KRT80 mRNA)” value ([1]; A549) is reported as -1.195. The “Top (% KRT80 mRNA, four-parameter fit)” value ([1]; A549) was 88.72%, the “% KRT80 mRNA” value ([1]; A549, conc 1e-10 mol/l) was 68.3704% and the “% KRT80 mRNA” value ([1]; A549, conc 3.2e-10 mol/l) was 113.907%. The “% KRT80 mRNA” value ([1]; A549, conc 1e-9 mol/l) was 83.7736%, the “% KRT80 mRNA” value ([1]; A549, conc 1.6e-9 mol/l) was 68.0813% and the “% KRT80 mRNA” value ([1]; A549, conc 8e-9 mol/l) was 32.1733%. The “% KRT80 mRNA” value ([1]; A549, conc 1e-8 mol/l) was 59.5378%, the “% KRT80 mRNA” value ([1]; A549, conc 4e-8 mol/l) was 6.155% and the “% KRT80 mRNA” value ([1]; A549, conc 1e-7 mol/l) was 5.176%. For the same compound, the “% KRT80 mRNA” value ([1]; A549, conc 2e-7 mol/l) was 3.074%, the “% KRT80 mRNA” value ([1]; A549, conc 1e-6 mol/l) was 3.879% and 3.0631% and the EC50 ([1]; A549, read-out: EC50 (KRT80 mRNA)) was 8.27 nM. The EC50 ([1]; A549, read-out: LogEC50 (KRT80 mRNA) (converted)) was 8.26 nM, the EC50 ([1]; NCI-H1568, read-out: EC50 (KRT80 mRNA)) was 9.77 nM and the EC50 ([1]; NCI-H1568, read-out: LogEC50 (KRT80 mRNA) (converted)) was 9.77 nM. For the same compound, the “Bottom (% KRT80 mRNA, four-parameter fit)” value ([1]; NCI-H1568) was 16.16%, the “Top (% KRT80 mRNA, four-parameter fit)” value ([1]; NCI-H1568) was 89.57% and the “% KRT80 mRNA” value ([1]; NCI-H1568, conc 1e-10 mol/l) was 84.6925%. The “% KRT80 mRNA” value ([1]; NCI-H1568, conc 1.6e-9 mol/l) was 88.1629%, the “% KRT80 mRNA” value ([1]; NCI-H1568, conc 8e-9 mol/l) was 95.8588% and the “% KRT80 mRNA” value ([1]; NCI-H1568, conc 1e-8 mol/l) was 27.1635%. For the same compound, the “% KRT80 mRNA” value ([1]; NCI-H1568, conc 4e-8 mol/l) was 13.5152%, the “% KRT80 mRNA” value ([1]; NCI-H1568, conc 1e-7 mol/l) was 10.7775% and the “% KRT80 mRNA” value ([1]; NCI-H1568, conc 2e-7 mol/l) was 11.1934%. The “% KRT80 mRNA” value ([1]; NCI-H1568, conc 1e-6 mol/l) was 17.4529% and 27.8788%, the EC50 ([2]; A549, A549, read-out: LogEC50 (viability) (converted)) was 29.3 nM and the EC50 ([2]; A549, A549, values derived from curves in Extended Fig 4b, read-out: EC50 mean) was 29.3 nM. It also gave an EC50 ([2]; HCC364, HCC-364, read-out: LogEC50 (viability) (converted)) of 70.8 nM, an EC50 ([2]; HCC364, HCC-364, values derived from curves in Extended Fig 4b, read-out: EC50 mean) of 70.8 nM and an EC50 ([2]; HCC515, HCC-515, read-out: LogEC50 (viability) (converted)) of 2.11 nM. The EC50 ([2]; HCC515, HCC-515, values derived from curves in Extended Fig 4b, read-out: EC50 mean) was 2.11 nM, the EC50 ([2]; HCC4006, HCC4006, read-out: LogEC50 (viability) (converted)) was 191 nM and the EC50 ([2]; HCC4006, HCC4006, values derived from curves in Extended Fig 4b, read-out: EC50 mean) was 191 nM. The EC50 ([2]; LXFA 629L, LXFA_629L, read-out: LogEC50 (viability) (converted)) was 16.5 nM, the EC50 ([2]; LXFA 629L, LXFA_629L, values derived from curves in Extended Fig 4b, read-out: EC50 mean) was 16.5 nM and the EC50 ([2]; LXFA_923L, read-out: LogEC50 (viability) (converted)) was 4.36 nM. For the same compound, the EC50 ([2]; LXFA_923L, values derived from curves in Extended Fig 4b, read-out: EC50 mean) was 4.35 nM, the EC50 ([2]; LXFL 529L, LXFL_529L, read-out: LogEC50 (viability) (converted)) was 0.382 nM and the EC50 ([2]; LXFL 529L, LXFL_529L, values derived from curves in Extended Fig 4b, read-out: EC50 mean) was 0.382 nM. The EC50 ([2]; Lu-99, LU99, read-out: LogEC50 (viability) (converted)) was 132 nM, the EC50 ([2]; Lu-99, LU99, values derived from curves in Extended Fig 4b, read-out: EC50 mean) was 132 nM and the EC50 ([2]; MP38, read-out: LogEC50 (viability) (converted)) was 8.75 nM. The EC50 ([2]; MP38, values derived from curves in Extended Fig 4b, read-out: EC50 mean) was 8.75 nM, the EC50 ([2]; NCI-H1355, NCI-H1355, read-out: LogEC50 (viability) (converted)) was 15.6 nM and the EC50 ([2]; NCI-H1355, NCI-H1355, values derived from curves in Extended Fig 4b, read-out: EC50 mean) was 15.6 nM. It also gave an EC50 ([2]; OV-90, OV-90, read-out: LogEC50 (viability) (converted)) of 67.5 nM, an EC50 ([2]; OV-90, OV-90, values derived from curves in Extended Fig 4b, read-out: EC50 mean) of 67.5 nM and an EC50 ([2]; SK-MEL-5, SK-MEL-5, read-out: LogEC50 (viability) (converted)) of 2.82 nM. The EC50 ([2]; SK-MEL-5, SK-MEL-5, values derived from curves in Extended Fig 4b, read-out: EC50 mean) was 2.82 nM, the viability at 1 µM ([2]; human, A549 cells, A549) was 44% and the viability at 0.316 µM ([2]; human, A549 cells, A549) was 43.1%. For the same compound, the viability at 1.25 µM ([2]; human, HCC4006 cells, HCC4006) was 42.2%, the viability at 0.313 µM ([2]; human, HCC4006 cells, HCC4006) was 53.4% and the viability at 1.25 µM ([2]; human, HCC-364 cells, HCC-364) was 14.6%. For the same compound, the viability at 0.313 µM ([2]; human, HCC-364 cells, HCC-364) was 20.4%, the viability at 1 µM ([2]; human, HCC-515 cells, HCC-515) was 15% and the viability at 0.316 µM ([2]; human, HCC-515 cells, HCC-515) was 22.4%. The viability at 1.25 µM ([2]; human, KYSE-30 cells, KYSE-30) was 91.1%, the viability at 0.313 µM ([2]; human, KYSE-30 cells, KYSE-30) was 92.8% and the viability at 0.313 µM ([2]; human, LU99 cells, LU99) was 30.1%. It also gave a viability at 1 µM [2, 3] of 14.9%, a viability at 0.316 µM [2, 3] of 24.7% and a viability at 1 µM [2, 4] of 13.6%. The viability at 0.316 µM [2, 4] was 21.4%, the viability at 1 µM [2, 5] was 4.39% and the viability at 0.316 µM [2, 5] was 6.27%. It also gave a viability at 0.1 µM ([2]; human, LXFL 529L cells, LXFL_529L, log10 conc -7 mol/l) of 9.52%.
